Test results taken from patent US12245623B2, “Olive oil enriched with oleanolic acid, process for its preparation and use thereof” (CONSEJO SUPERIOR DE INVESTIGACIONES CIENTÍFICAS (CSIC), priority 2018, dated 2025).

Key:
[1] = cited from earlier work
[2] = Fasting plasma OA levels in the PREDIABOLE Study (GC-MS); type: in vivo, human; settings: both study groups
Text: At baseline and every six months afterwards, fasting blood samples were taken and analyzed for the serum glucose, insulin and HbA1c levels, as well as the lipid profile (triglycerides, total cholesterol, HDL-c and LDL-c). At each annual visit since the recruitment, participants were submitted to an OGTT. All these analytical determinations were made in the Laboratory of Analysis and Clinical Biochemistry of the ‘Virgen del Rocio’ University Hospital of Seville. In addition, aliquots of all the blood samples were sent to Instituto de la Grasa-CSIC to determine the plasma OA content. Laboratory technicians of both institutions were also blinded to the intervention groups.
Adherence to the dietary intervention has been assessed through two indirect methods: the self-reported compliance Haynes-Sackett (Rodriguez-Chamorro M A et al. Review of therapeutic compliance measurement tests used in clinical practice. Atencion Primaria 2008, 40, 413-417) test and the delivering of the empty bottles presumably consumed. In addition, the OA plasma levels have been measured, as objective biomarker of compliance, in a random sample of the PREDIABOLE biobank (25 aliquots per study group, corresponding to 0, 12, 18 and 30 months of follow-up). […]

[3] = previous study, Rada et al. 2015; cited from earlier work
[4] = Adverse effects in the PREDIABOLE Study (quarterly questioning and retrospective review of electronic medical records); type: in vivo, human; settings: indicated daily dose (55 mL oil, 36 mg OA/day), up to 30 months, humans
Text: In each quarterly visit during the development of the trial, participants were questioned about the appearance of gastrointestinal disarrays or other kind of discomfort. On the other hand, a family physician not belonging to the study staff, and therefore being unaware of the allocation of the participants to the study groups, carried out a retrospective study using the electronic medical records.
They explored for each participant the period comprised between the inclusion in the trial up to two years after its completion, and focused on analytical values of serum creatinine levels (marker of renal function) and alanine and aspartate aminotransferase enzymes (as markers of hepatic alteration). Normal creatinine levels are established in 61.9 to 114.9 μM for men and 53 to 97.2 μM for women. A serum creatinine level 1.5-folds higher than the normal value (≈150 μM) was adopted as criteria of kidney function alteration.
Since micro and macrovascular disorders are frequently associated to pathological complications of insulin resistance and diabetes, the electronic medical records were also explored for cerebral (transient ischemic stroke and ictus), cardiac (ischemic heart disease, chronic ischemia and effort angina) and peripheral (peripheral arterial disease) vascular diseases. In addition, any other significant adverse event suffered by participants were also took in consideration. […]

CC1(C)CC[C@]2(C(=O)O)CC[C@]3(C)C(=CC[C@@H]4[C@@]5(C)CC[C@H](O)C(C)(C)[C@@H]5CC[C@]43C)[C@@H]2C1 [OA, 3b-hydroxy-olean-12-en-28-oic acid]
solubility in aqueous media [1]: practically insoluble
solubility in lipophilic matrices [1]: partially soluble
fasting OA plasma concentration, average value ([2]; at the onset of the study): ca. 160 ng/mL
concentration at 30 months ([2]; human, in vivo, after 30 months of follow-up): ~300 ng/mL
mean residence time of OA in human blood after its ingestion [3]: 8.9 h
safety of long-term administration [4]: safe for humans
